Tests used:
[1] = system: Septoria tritici (ATCC 26517); assay: Minimum Inhibitory Concentration (MIC) vs. Septoria tritici; assay type: cell-based; conditions: Zymoseptoria tritici, ATCC26517, 168 h; S. tritici ATCC 26517; 50% growth reduction; 7 days at 22 °C; read-out: Septoria Rating (MIC)
Protocol: C. Minimum Inhibitory Concentration (MIC) vs. Septoria Tritici Compounds were assessed for their ability to inhibit the growth of a common strain of the fungal plant pathogen Septoria tritici (ATCC 26517) using a procedure based on a Clinical and Laboratory Standards Institute (CLSI) microdilution assay protocol for filamentous fungi. Stock solutions of the test compounds and standards were prepared in DMSO at 6400 μg/mL. Each stock solution was used to prepare a 2-fold dilution series ranging from 16 to 0.016 μg/mL (total of 11 compound concentrations) in RPMI-1640 (Roswell Park Memorial Institute) medium containing 3-(N-morpholino)propanesulfonic acid (MOPS) buffer and 2% DMSO. A 100 μL aliquot of the dilutions was added to columns 1 (16 μg/mL compound) through 11 (0.016 μg/mL compound) of a 96-well microtiter plate. This format was replicated in a second row of the microtiter plate. Thus, each microtiter plate could include 11 concentrations of four test or control compounds replicated twice. A 100 μL aliquot of RPMI-1640/MOPS/2% DMSO medium was added to column 12 (no compound control) of the microtiter plate. A fresh culture of S. tritici was used to prepare a solution of approximately 5×10^4 colony-forming units per milliliter (cfu/mL) in RPMI/MOPS medium without DMSO. A 100 μL aliquot of this solution was added to all 96 wells in the microtiter plate. […]

[2] = system: Puccinia recondita tritici = Puccinia triticina (PUCCRT); assay: Fungicidal activity vs. leaf rust on wheat plants; assay type: in vivo; conditions: wheat (Yuma) sprayed at 50 ppm, inoculated the following day, rated 7-9 days later, read-out: Puccinia Rating (% Disease Control @ 50 ppm)
Outline: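 Wheat seedlings sprayed to wet with compound at 50 ppm in 10% acetone/90% Triton X100 water (~1500 L/ha), then inoculated next day with P. triticina spores and held humid overnight.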

SMILES | MIC [1] | pest or weed control at 50 ppm [2]
OC(Cn1cnnn1)(c1ccc(F)cc1F)C(F)(F)c1ccc(OCc2ccccc2)cn1 (centres unmarked) [Compound 30, 1-(5-(Benzyloxy)pyridin-2-yl)-2-(2,4-difluorophenyl)-1,1-difluoro-3-(1H-tetrazol-1-yl)propan-2-ol] | ≤ 0.5 µg/mL | 80 to 100%
CC#CCOc1ccc(C(F)(F)C(O)(Cn2cnnn2)c2ccc(F)cc2F)nc1 (centres unmarked) [Compound 32, 1-(5-(But-2-yn-1-yloxy)pyridin-2-yl)-2-(2,4-difluorophenyl)-1,1-difluoro-3-(1H-tetrazol-1-yl)propan-2-ol] | ≤ 0.5 µg/mL | –
OC(Cn1cnnn1)(c1ccc(F)cc1F)C(F)(F)c1ccc(OCc2ccnc(Cl)c2)cn1 (centres unmarked) [Compound 117, 1-(5-((2-chloropyridin-4-yl)methoxy)pyridin-2-yl)-2-(2,4-difluorophenyl)-1,1-difluoro-3-(1H-tetrazol-1-yl)propan-2-ol] | – | 80 to 100%
OC(Cn1cnnn1)(c1ccc(F)cc1F)C(F)(F)c1ccc(OCc2ccncc2)cn1 (centres unmarked) [Compound 118, 2-(2,4-difluorophenyl)-1,1-difluoro-1-(5-(pyridin-4-ylmethoxy)pyridin-2-yl)-3-(1H-tetrazol-1-yl)propan-2-ol] | – | < 40%
OC(Cn1cnnn1)(c1ccc(F)cc1F)C(F)(F)c1ccc(OCC(F)(F)c2ccccc2)cn1 (centres unmarked) [Compound 119, 1-(5-(2,2-difluoro-2-phenylethoxy)pyridin-2-yl)-2-(2,4-difluorophenyl)-1,1-difluoro-3-(1H-tetrazol-1-yl)propan-2-ol] | – | 80 to 100%
OC(Cn1cnnn1)(c1ccc(F)cc1F)C(F)(F)c1ccc(OCC(F)(F)c2ccc(OC(F)F)cc2)cn1 (centres unmarked) [Compound 120, 1-(5-(2-(4-(difluoromethoxy)phenyl)-2,2-difluoroethoxy)pyridin-2-yl)-2-(2,4-difluorophenyl)-1,1-difluoro-3-(1H-tetrazol-1-yl)propan-2-ol] | – | 80 to 100%
N#Cc1ccc(C(F)(F)COc2ccc(C(F)(F)C(O)(Cn3cnnn3)c3ccc(F)cc3F)nc2)cc1 (centres unmarked) [Compound 121, 4-(2-((6-(2-(2,4-difluorophenyl)-1,1-difluoro-2-hydroxy-3-(1H-tetrazol-1-yl)propyl)pyridin-3-yl)oxy)-1,1-difluoroethyl)benzonitrile] | – | 80 to 100%
OC(Cn1cnnn1)(c1ccc(F)cc1F)C(F)(F)c1ccc(OCC(F)(F)c2ccc(Cl)cc2)cn1 (centres unmarked) [Compound 122, 1-(5-(2-(4-chlorophenyl)-2,2-difluoroethoxy)pyridin-2-yl)-2-(2,4-difluorophenyl)-1,1-difluoro-3-(1H-tetrazol-1-yl)propan-2-ol] | – | 80 to 100%
OC(Cn1cnnn1)(c1ccc(F)cc1F)C(F)(F)c1ccc(OCC(F)c2ccccc2)cn1 (centres unmarked) [Compound 123, 2-(2,4-difluorophenyl)-1,1-difluoro-1-(5-(2-fluoro-2-phenylethoxy)pyridin-2-yl)-3-(1H-tetrazol-1-yl)propan-2-ol] | – | 80 to 100%
OC(Cn1cnnn1)(c1ccc(F)cc1F)C(F)(F)c1ccc(OCC(F)c2ccc(OC(F)F)cc2)cn1 (centres unmarked) [Compound 124, 1-(5-(2-(4-(difluoromethoxy)phenyl)-2-fluoroethoxy)pyridin-2-yl)-2-(2,4-difluorophenyl)-1,1-difluoro-3-(1H-tetrazol-1-yl)propan-2-ol] | – | 80 to 100%
